Results taken from ChEMBL document CHEMBL1158584, “Mono-, di-, and triaryl substituted tetrahydropyrans as cyclooxygenase-2 and tumor growth inhibitors. Synthesis and biological evaluation” (J Med Chem, 2010).

System: HT-29
Test: cells
Conditions: Homo sapiens, HT-29, 48 h, read-out: LC50

Compound | CC50
N#CSC[C@@H]1C[C@@](O)(c2ccccc2)C[C@H](c2ccc(Cl)cc2)O1 (relative stereo) | 7.76 µM

System: KM12
Test: cells
Conditions: Homo sapiens, KM12, 48 h

Compound | GI50
N#CSC[C@@H]1C[C@@](O)(c2ccccc2)C[C@H](c2ccc(Cl)cc2)O1 (relative stereo) | 1.69 µM

Same assay, conditions: Homo sapiens, KM12, 48 h, read-out: LC50

Compound | CC50
N#CSC[C@@H]1C[C@@](O)(c2ccccc2)C[C@H](c2ccc(Cl)cc2)O1 (relative stereo) | 5.62 µM

System: SW-620
Test: cells
Conditions: Homo sapiens, SW-620, 48 h

Compound | GI50
N#CSC[C@@H]1C[C@@](O)(c2ccccc2)C[C@H](c2ccc(Cl)cc2)O1 (relative stereo) | 1.81 µM

Same assay, conditions: Homo sapiens, SW-620, 48 h, read-out: LC50

Compound | CC50
N#CSC[C@@H]1C[C@@](O)(c2ccccc2)C[C@H](c2ccc(Cl)cc2)O1 (relative stereo) | 6.45 µM

System: SF-539
Test: cells
Conditions: Homo sapiens, SF-539, 48 h

Compound | GI50
N#CSC[C@@H]1C[C@@](O)(c2ccccc2)C[C@H](c2ccc(Cl)cc2)O1 (relative stereo) | 1.17 µM

Same assay, conditions: Homo sapiens, SF-539, 48 h, read-out: LC50

Compound | CC50
N#CSC[C@@H]1C[C@@](O)(c2ccccc2)C[C@H](c2ccc(Cl)cc2)O1 (relative stereo) | 5.12 µM

System: U-251
Test: cells
Conditions: Homo sapiens, U-251, 48 h

Compound | GI50
N#CSC[C@@H]1C[C@@](O)(c2ccccc2)C[C@H](c2ccc(Cl)cc2)O1 (relative stereo) | 2.63 µM

Same assay, conditions: Homo sapiens, U-251, 48 h, read-out: LC50

Compound | CC50
N#CSC[C@@H]1C[C@@](O)(c2ccccc2)C[C@H](c2ccc(Cl)cc2)O1 (relative stereo) | 30.1 µM

System: LOX IMVI
Test: cells
Conditions: Homo sapiens, 48 h

Compound | GI50
N#CSC[C@@H]1C[C@@](O)(c2ccccc2)C[C@H](c2ccc(Cl)cc2)O1 (relative stereo) | 1.58 µM

Same assay, conditions: Homo sapiens, 48 h, read-out: LC50

Compound | CC50
N#CSC[C@@H]1C[C@@](O)(c2ccccc2)C[C@H](c2ccc(Cl)cc2)O1 (relative stereo) | 5.86 µM

System: SK-MEL-2
Test: cells
Conditions: Homo sapiens, SK-MEL-2, 48 h

Compound | GI50
N#CSC[C@@H]1C[C@@](O)(c2ccccc2)C[C@H](c2ccc(Cl)cc2)O1 (relative stereo) | 1.73 µM

Same assay, conditions: Homo sapiens, SK-MEL-2, 48 h, read-out: LC50

Compound | CC50
N#CSC[C@@H]1C[C@@](O)(c2ccccc2)C[C@H](c2ccc(Cl)cc2)O1 (relative stereo) | 6.02 µM

System: SK-MEL-28
Test: cells
Conditions: Homo sapiens, SK-MEL-28, 48 h

Compound | GI50
N#CSC[C@@H]1C[C@@](O)(c2ccccc2)C[C@H](c2ccc(Cl)cc2)O1 (relative stereo) | 1.73 µM

Same assay, conditions: Homo sapiens, SK-MEL-28, 48 h, read-out: LC50

Compound | CC50
N#CSC[C@@H]1C[C@@](O)(c2ccccc2)C[C@H](c2ccc(Cl)cc2)O1 (relative stereo) | 23.9 µM

System: SK-MEL-5
Test: cells
Conditions: Homo sapiens, SK-MEL-5, 48 h

Compound | GI50
N#CSC[C@@H]1C[C@@](O)(c2ccccc2)C[C@H](c2ccc(Cl)cc2)O1 (relative stereo) | 0.06 µM

Same assay, conditions: Homo sapiens, SK-MEL-5, 48 h, read-out: LC50

Compound | CC50
N#CSC[C@@H]1C[C@@](O)(c2ccccc2)C[C@H](c2ccc(Cl)cc2)O1 (relative stereo) | 35.4 µM

System: UACC-257
Test: cells
Conditions: Homo sapiens, UACC-257, 48 h

Compound | GI50
N#CSC[C@@H]1C[C@@](O)(c2ccccc2)C[C@H](c2ccc(Cl)cc2)O1 (relative stereo) | 1.62 µM

Same assay, conditions: Homo sapiens, UACC-257, 48 h, read-out: LC50

Compound | CC50
N#CSC[C@@H]1C[C@@](O)(c2ccccc2)C[C@H](c2ccc(Cl)cc2)O1 (relative stereo) | 12 µM

System: A498
Test: cells
Conditions: Homo sapiens, A498, 48 h

Compound | GI50
N#CSC[C@@H]1C[C@@](O)(c2ccccc2)C[C@H](c2ccc(Cl)cc2)O1 (relative stereo) | 1.69 µM

Same assay, conditions: Homo sapiens, A498, 48 h, read-out: LC50

Compound | CC50
N#CSC[C@@H]1C[C@@](O)(c2ccccc2)C[C@H](c2ccc(Cl)cc2)O1 (relative stereo) | 39.8 µM

System: ACHN
Test: cells
Conditions: Homo sapiens, 48 h

Compound | GI50
N#CSC[C@@H]1C[C@@](O)(c2ccccc2)C[C@H](c2ccc(Cl)cc2)O1 (relative stereo) | 2.88 µM

Same assay, conditions: Homo sapiens, 48 h, read-out: LC50

Compound | CC50
N#CSC[C@@H]1C[C@@](O)(c2ccccc2)C[C@H](c2ccc(Cl)cc2)O1 (relative stereo) | 29.5 µM

System: UO-31
Test: cells
Conditions: Homo sapiens, UO-31, 48 h

Compound | GI50
N#CSC[C@@H]1C[C@@](O)(c2ccccc2)C[C@H](c2ccc(Cl)cc2)O1 (relative stereo) | 1.04 µM

Same assay, conditions: Homo sapiens, UO-31, 48 h, read-out: LC50

Compound | CC50
N#CSC[C@@H]1C[C@@](O)(c2ccccc2)C[C@H](c2ccc(Cl)cc2)O1 (relative stereo) | 7.07 µM

System: PC-3
Test: cells
Conditions: Homo sapiens, PC-3, 48 h

Compound | GI50
N#CSC[C@@H]1C[C@@](O)(c2ccccc2)C[C@H](c2ccc(Cl)cc2)O1 (relative stereo) | 3.01 µM

Same assay, conditions: Homo sapiens, PC-3, 48 h, read-out: LC50

Compound | CC50
N#CSC[C@@H]1C[C@@](O)(c2ccccc2)C[C@H](c2ccc(Cl)cc2)O1 (relative stereo) | 48.9 µM

System: DU-145
Test: cells
Conditions: Homo sapiens, DU-145, 48 h

Compound | GI50
N#CSC[C@@H]1C[C@@](O)(c2ccccc2)C[C@H](c2ccc(Cl)cc2)O1 (relative stereo) | 1.77 µM

Same assay, conditions: Homo sapiens, DU-145, 48 h, read-out: LC50

Compound | CC50
N#CSC[C@@H]1C[C@@](O)(c2ccccc2)C[C@H](c2ccc(Cl)cc2)O1 (relative stereo) | 6.45 µM

System: MCF7
Test: cells
Conditions: Homo sapiens, MCF7, 48 h

Compound | GI50
N#CSC[C@@H]1C[C@@](O)(c2ccccc2)C[C@H](c2ccc(Cl)cc2)O1 (relative stereo) | 1.47 µM

Same assay, conditions: Homo sapiens, MCF7, 48 h, read-out: LC50

Compound | CC50
N#CSC[C@@H]1C[C@@](O)(c2ccccc2)C[C@H](c2ccc(Cl)cc2)O1 (relative stereo) | 8.51 µM
